According to patent US11247983B2, “Compounds and methods for inhibiting JAK” (Dizal (Jiangsu) Pharmaceutical Co., Ltd., priority 2015, dated 2022):

Experiments:
[1] = test system: NCI-H1975 tumor xenografts; assay: In vivo efficacy in the H1975 xenograft model (Example 69); design: species or system mice; details: oral, 18 days; osimertinib 2.5 mg/kg QD, Example 32 12.5, 25 or 50 mg/kg BID; combination compared to osimertinib alone, single agent relative to vehicle
Procedure: (§1) Tumor volume was measured twice a week.

[2] = test system: pSTAT3 (Y705) in NCI-H1975 tumors; assay: pSTAT3 (Y705) levels in NCI-H1975 tumor lysates (pharmacodynamics, Example 69); format: in vivo, mice; details: Example 32 12.5, 25, 50 mg/kg BID, after one day of treatment, samples 2, 8 and 24 hours after the AM dose
Procedure: MATERIALS AND METHODS: NCI-H1975 cells (a human NSCLC cell line with L858R and T790M mutations in the EGFR gene) tumor cells were implanted subcutaneously in female NCr nude mice (Taconic Laboratories), 3×10^6 cells/mouse. […] Drug levels in plasma were measured by LC/MS, using a Linear Ion Trap Quadrupole LC/MS/MS Mass Spectrometer (QTRAP 5500 model 1024945-BB, AB Sciex Instruments), with separation on a Waters Xbridge C18 column.

[3] = test system: pSTAT3 (Y705) in PC-9 tumors; assay: pSTAT3 (Y705) levels in PC-9 tumor lysates (Western blot, Example 70); format: in vivo, mice; details: Example 32 12.5 and 50 mg/kg BID with gefitinib, last day of treatment, 2, 8 and 24 hours after the AM dose
[4] = test system: NCI-H1650 tumor xenografts; assay: In vivo efficacy in the H1650 xenograft model (Example 71); design: species or system mice; details: oral, 21 days; gefitinib 6.25 mg/kg QD, Example 32 25 or 50 mg/kg BID; combination compared to single agent gefitinib
Procedure: as §1

[5] = test system: pSTAT3 (Y705) in NCI-H1650 tumors; assay: pSTAT3 levels in NCI-H1650 tumor lysates (Western blot, Example 71); format: in vivo, mice; details: measured after one day of treatment
Procedure: Twenty-three days after cell implantation, the mice were randomized into 6 groups (9 mice/group, average tumor volume 257 mm^3, range 205-303 mm^3). […] Drug levels in plasma were measured by LC/MS, using a Linear Ion Trap Quadrupole LC/MS/MS Mass Spectrometer (QTRAP 5500 model 1024945-BB, AB Sciex Instruments), with separation on a Waters Xbridge C18 column.

[6] = test system: LG1049 non-small cell lung cancer PDX tumor xenografts; assay: In vivo efficacy in the LG1049 xenograft PDX model (Example 72)
Procedure: SUMMARY: LG1049 non-small cell lung cancer PDX tumor xenografts were grown subcutaneously in female NSG mice. […] Tumor volume was measured twice a week.
(§2) MATERIALS AND METHODS: LG1049 tumor fragments were implanted subcutaneously in female NSG mice (JAX Stock No. 005557).

[7] = test system: pSTAT3 (Y705) in LG1049 tumors; assay: pSTAT3 levels in LG1049 tumor lysates (Western blot, Example 72); format: in vivo, mice; details: Example 32 25 mg/kg BID, 5 days of treatment, 4H after the final dose
Source text: MATERIALS AND METHODS: LG1049 tumor fragments were implanted subcutaneously in female NSG mice (JAX Stock No. 005557). Once tumor volumes reached ˜125-275 mm^3, mice were randomized into 5 groups (10 mice/group, average tumor volume 189 mm^3, range 138-253 mm^3).

[8] = test system: NCI-H1975 tumor xenografts; assay: In vivo efficacy of intermittent Example 32 dosing schedules in the H1975 xenograft model (Example 73); design: species or system mice; details: oral, 19 to 29 days; osimertinib 2.5 mg/kg QD, Example 32 12.5, 25 or 50 mg/kg BID on continuous or intermittent schedules; combination compared to osimertinib alone, single agent relative to vehicle
Procedure: as §1
MATERIALS AND METHODS: NCI-H1975 cells (a human NSCLC cell line with L858R and T790M mutations in the EGFR gene), were implanted subcutaneously in female NCr nude mice (Taconic Laboratories), 3×10^6 cells/mouse.

[9] = test system: pEGFR (pY1173) in LG1049 tumors; assay: pEGFR levels in LG1049 tumor lysates (Western blot, Example 72); format: in vivo, mice; details: osimertinib 25 mg/kg QD, 5 days of treatment, 4H after the final dose
Source text: as §2

SMILES	antitumor activity (tumor volume, FIG. 19) [1]	pSTAT3 knockdown in tumors (FIG. 21) [2]	duration of pSTAT3 knockdown in tumors (FIG. 24) [3]	antitumor activity (tumor volume, FIG. 25) [4]	knockdown of pSTAT3 in tumors (FIG. 27) [5]	body weight (FIG. 29) ([6]; mouse, in vivo)	antitumor activity / tumor regression (tumor volume, FIG. 28) ([6]; oral, osimertinib 25 mg/kg QD 28 days, Example 32 25 mg/kg BID (18 days as single agent), combination compared to osimertinib alone, single agent relative to vehicle)	knockdown of pSTAT3 in tumors (FIG. 30) [7]	antitumor activity (tumor volume, FIG. 31A-31E) [8]	body weight (FIG. 29) ([6]; LG1049 tumor bearing NSG mice, weight loss attributed to tumor growth)	tumor regrowth when treatment was stopped after 28 days ([6]; after 28 days of dosing)	knockdown of pEGFR in tumors (FIG. 30) [9]
COc1nn(C)cc1Nc1nccc(-c2c[nH]c3c(NC(=O)[C@@H](C)N4CCN(C)CC4)cccc23)n1 [Example 32, (2R)-N-(3-{2-[(3-methoxy-1-methyl-1H-pyrazol-4-yl)amino]pyrimidin-4-yl}-1H-indol-7-yl)-2-(4-methylpiperazin-1-yl)propanamide]	only weak antitumor activity	dose dependent increase in pSTAT3 knockdown	dose dependent increase in the duration of pSTAT3 knockdown	only modest antitumor activity	Knockdown of pSTAT3 was observed	significant weight loss	no significant activity relative to vehicle control treatment	robust knockdown	no significant activity relative to vehicle control treatment			
C=CC(=O)Nc1cc(Nc2nccc(-c3cn(C)c4ccccc34)n2)c(OC)cc1N(C)CCN(C)C [osimertinib, reference compound]										lack of significant weight loss	tumors rapidly regrew	robust knockdown
